Results reported in a melting point compilation (Tetko et al.; mined from patent text by program, amines drawn as free bases though some values may be those of a salt).

Structure (SMILES) | melting point [°C]
O=[N+]([O-])c1ccc(F)c(Br)c1O | 65 to 66
N=C(N)Nc1nc(CCCCNC(N)=N[N+](=O)[O-])cs1 | 180 to 181
CCC(C)(C)c1cc(-c2c[nH]c(C=C3SC(N4CCOCC4)=NC3=O)c2)ccc1O | 314
COc1cccc(CNC(=O)c2nc3scc(COc4ccc(C(=O)O)cc4)c3c(=O)[nH]2)c1 | 297 to 299
COc1cc(N(C(=O)C[C@H](N)C(=O)O)S(=O)(=O)c2ccc3c(ccn3C)c2)cc(OC)c1OC | 156 to 159
O=C(O)Cc1c(Oc2ccc3c(c2)OCO3)cccc1Oc1ccc2c(c1)OCO2 | 176 to 177
COC(=O)c1cccc2nc(N3CCOCC3)n(Cc3ccc(-c4ccccc4-c4nnn[nH]4)cc3)c12 | 163 to 167
CS(=O)(=O)c1cc(Cl)cc(-c2cccnc2-c2cccnc2)c1 | 135
O=C(O)c1nc(-c2ccc(Cl)cc2Cl)n(-c2ccc(Cl)cc2)c1Br | 205 to 207
Cc1ccc(N(C)S(=O)(=O)c2cccs2)c2[nH]c(C(N)=O)cc12 | 221 to 222
COc1ccc(-c2c(C)c3ccc(O)cc3oc2=O)c(O)c1 | 213 to 214
N#CCc1ccc(OCc2ccccc2)c(OCc2ccccc2)c1CCc1cccc(OCc2ccccc2)c1 | 90
N#Cc1cccc(C(=O)Nc2cccc(-c3cccc4c3/C(=C/c3ccc[nH]3)C(=O)N4)c2)c1 | 250 to 251
CCCNc1nc(C#N)c(C#N)nc1-c1ccc(C)cc1 | 115 to 116
CCOP(=O)(NC(=O)c1cc(=O)c2ccccc2o1)OCC | 182 to 183
CC(C)(C)NCC(O)COc1ccc(-c2noc3sccc23)cc1 (centres undefined) | 118
CCCc1nnc(N2N=C(c3ccc([N+](=O)[O-])c(C)c3)c3cc4c(cc3C[C@H]2C)OCO4)s1 | 143 to 145
CC1(C)CC(=O)CC(C)(C)c2cc(Br)ccc21 | 104 to 105
CSc1ccc(CCl)cc1C(F)(F)F | 65 to 66
CCc1[nH]n(C2CCCC2)c2nc(-c3cccc(OC4CCCCN(C)C4)c3)nc(=O)c1-2 (centres undefined) | 195 to 196
O=C1OC2(CC(c3ccc(F)cc3)=NO2)c2ccccc21 (centres undefined) | 142 to 145
CCC1c2ncn(C)c2CCN1C(=S)NC(C)C (centres undefined) | 186
CCOC(=O)c1ccc(Cc2ccccc2)cn1 | 109 to 111
COc1cc2c(cc1O)/C(=N/OCc1ccc([N+](=O)[O-])cc1)CCC2 | 125 to 127
N#Cc1ccccc1C(F)(F)C(F)(F)c1ccccc1 | 84 to 86
O=C1c2c(Cl)cccc2-n2cnc(-c3nc(C4CC4)no3)c2[C@@H]2CCCN12 | 213 to 214

Structure (SMILES) | melting point [°C]
Cc1cc(NC(=O)C2=C(O)c3ccccc3N(c3ccccc3)C2)no1 | 148 to 150
COc1ccc(-c2cccs2)c2c1c(CCN(C)C)cn2C | 131 to 133
COc1cc(C)c2c(c1)CCN2c1nc(Cl)cn(CCSC)c1=O | 111 to 113
CC(=O)NCCSCC(=O)[C@H](Cc1ccccc1)NC(=O)[C@H](CC(C)C)NC(=O)OCc1ccccc1 | 122 to 123
CCN(CC)CC1CCCCN1CC(C)(C)NC(=O)N1c2ccccc2C(=O)Nc2cccnc21 (centres undefined) | 160 to 162
O=C(CN(Cc1ccccc1)c1c(C(=O)O)[nH]c2cc(Cl)cc(Cl)c12)c1ccccc1 | 266 to 267
Cc1c(CC(=O)N[C@@H](CO[N+](=O)[O-])C(=O)O)cc(-c2ccc(S(C)(=O)=O)cc2)n1-c1ccc(F)cc1 | 109
O=S(=O)(c1ccccc1)N1CCC(C(O)(c2ccc(F)cc2)c2ccc(F)cc2)CC1 | 142 to 144
O=[N+]([O-])c1ccc(NN=Cc2cnccn2)nc1 | 271 to 272
CC(C)NC(=NC(=O)OC(C)(C)C)N=C1NC(=O)C(=O)N1c1ccc(Cl)c(Cl)c1 | 227
CC(=O)SCSc1cn(C)nn1 | 71 to 72
CN(Cc1cccc(-c2ccc(CC3SC(=O)NC3=O)cc2)c1)C(=O)c1ccc(-c2ccc(O)cc2)cc1 (centres undefined) | 211 to 213
CC(=O)NC(C(=O)Nc1ccc(C(=O)O)cc1)c1ccc2c(c1)C(C)(C)CCC2(C)C (centres undefined) | 258 to 259
O=C(CCl)Nc1ccccn1 | 114 to 117
Nc1c(-c2ccc(I)cc2)nc2ccc(F)cc2c1C(=O)O | 251 to 253
CC(C)OC(=O)C=Cc1cc(N)ccc1Cl | 98 to 100
CCCCCN1C(=O)C(CCC(=O)O)(NC(=O)c2ccc(Cl)c(Cl)c2)c2ccccc21 (centres undefined) | 202 to 204
COC(=O)c1sc(C(=O)OC)c(OC)c1N | 120 to 124
NC(=O)Cc1ccc(OC[C@@H]2CO2)cc1 | 168 to 169
COC(=O)C(O)P(C)(C)=O (centres undefined) | 84 to 86
c1cc(-c2ccc3c(c2)OCO3)cc(Nc2ccc3c(c2)OCCO3)n1 | 116 to 118
CN(C)C(=O)N(C)Cc1cccc2c1C(=O)N(C1CCC(=O)NC1=O)C2=O (centres undefined) | 206 to 208
CC(=NNc1ccc(C2=NNC(=O)CC2C)cc1)c1cc(O)ccc1O (centres undefined) | 279 to 284
CCCc1nc(C(OCC)OCC)cc(NC(c2ccccc2)(c2ccccc2)c2ccccc2)c1F | 111 to 112
N#Cc1c(N2CCc3ccccc3CC2)nc(CO)n(CC(F)(F)F)c1=O | 181 to 185

Second part, the molecule after the results:

melting point [°C] | Structure (SMILES)
149 to 150 | CS(=O)CCNC(=O)c1cccc(-c2ccc3c(c2)C(Oc2ccc(Cl)cc2Cl)CC3)c1 (centres undefined)
86 to 89 | Cc1nn(-c2c(Cl)cc(C(F)(F)F)cc2Cl)nc1S
23 | CCCCC1COC(c2ccc(OC(F)(F)F)cc2)OC1 (centres undefined)
176 to 178 | O=C(O)c1ccc(OCCn2ncc3nc(C(=O)NCc4cccc(OCCOc5nc[nH]n5)c4)[nH]c(=O)c32)cc1
135 to 136 | CCCCCc1c(CO)nc(C(C)C)c(CO)c1-c1ccc(F)cc1
62 to 65 | COc1ccc2c(c1OC)C1(COc3cc4c(cc31)OCCO4)C(=O)N2Cc1ccc(C(F)(F)F)o1 (centres undefined)
118 to 120 | COc1ccccc1Oc1c(Cl)nc(-c2cccs2)nc1Cl
146 to 147 | COCCOC(=O)C1=C(C(F)F)NC(C)=C(C(=O)OC(C)C)C1c1cccc([N+](=O)[O-])c1 (centres undefined)
174 | CC(=O)Nc1ccc(Cl)cc1S(=O)(=O)CC#N
115 to 118 | CCCCCCCCCCCCCCC1Cc2ccc(C(=O)O)cc2N1C (racemic)
108 to 110 | Cc1c(C(=O)CBr)ccn1S(=O)(=O)c1ccccc1
195 to 197 | Nc1nc(N)c2c(Sc3ccccc3)cccc2n1
195 to 205 | CC(C)N(C(=O)C(C)C(C#N)(c1ccccc1)c1ccccc1)C(C)C (centres undefined)
89 | COc1ccc(C(C=NO)C(C)C)cc1OC (centres undefined)
208 to 209 | COc1ccc(C=CC(=O)Nc2cnc3ccc(Cl)cc3c2-c2ccccc2Cl)cc1OC
235 to 240 | COc1ccc(C=C2CS(=O)(=O)CC3=C2N=C2SCCN2C3c2ccc(OC)cc2)cc1 (centres undefined)
181 to 182 | C=CCn1c(N)nc(N2CCc3ccccc3CC2)c(C#N)c1=O
210 to 211 | CC1C(=O)c2cc(NS(C)(=O)=O)ccc2OC12CCN(CCc1ccccn1)CC2 (centres undefined)
243 to 245 | O=S1(=O)NC(C2CCCCC2)Nc2ccc(S(=O)(=O)c3ccccc3)cc21 (centres undefined)
135 to 137 | Cc1ccccc1-n1ccc2c(Cl)nc3c(C)cccc3c21
161 to 163 | COc1ccc(N2CCN(c3c(C)c(C)c4c(c3C)CC(C)(C)O4)CC2)cc1F
98 to 100 | c1cnc2c(OCCOc3nccnc3N3CCNCC3)cccc2c1
86 to 87 | CCCc1cc(Cl)c2oc(-c3ccccc3)c(C)c2c1OC(C)=O
79 to 82 | COc1c(Nc2ncc(Cl)c(Nc3ccccc3S(=O)(=O)N3CCCC3)n2)ccc2c1CCCC(NCCO)C2 (centres undefined)

melting point [°C] | Structure (SMILES)
185 to 188 | CCOCc1nc2c(N)nc3ccccc3c2n1CCCCS(=O)(=O)N1CCCCC1
> 300 | C=CCOc1cccc(-c2c(O)c3ccc(Cl)cc3[nH]c2=O)c1
158 | COC(=O)CSC1NC(=O)c2sccc2-n2cccc21 (centres undefined)
253 to 255 | COc1ncc(C=C2SC(=S)N(CC(=O)O)C2=O)cc1-c1cc2c(cc1C)C(C)(C)CCC2(C)C
109 to 110 | O=C1CCCN1c1cn(-c2cccnc2)nc1Cl
152 to 154 | COC(=O)C1(CCCN2CCN(c3ccccc3)CC2)Sc2ccccc2CCC1O (centres undefined)
190 to 191 | CSc1nc(NC2CCCC2)c2ccnc-2[nH]1
161 to 163 | OCc1ccc(/C=C/c2ccc(OC(F)(F)F)cc2)cc1
> 250 | CC1(S(=O)(=O)c2ccccc2)CCc2nc(-c3ccccc3)[nH]c(=O)c2C1 (centres undefined)
142 to 143 | CCOC(=O)c1coc2c(OC)ccc(C(=O)Cc3c(Cl)cncc3Cl)c12
118 to 120 | COc1ccc(/C=C/C(=O)N2CCc3ccccc32)cc1OC
212 to 214 | O=Cc1c2ccccc2c(Cl)c2cc3ccccc3cc12
189 to 191 | O=C(O)Cc1ccc(N2CC3=C(CCCC3)C2=O)cc1
258 to 260 | N#Cc1ccc(CN2c3ccc(Cl)cc3C=C(C(=O)O)C2C(F)(F)F)cc1 (centres undefined)
98 to 100 | ON=C(c1ccc(Cl)cc1)c1ccc(Cl)cc1Cl
95.5 to 98 | CN(C)Cc1ccc(CSCCNc2ncc(Cc3ccn(Cc4ccccc4)c(=O)c3)c(=O)[nH]2)o1
92 to 93 | CCOc1ccc(C2=NN(C3CCCCCC3)C(=O)[C@H]3CC=CC[C@@H]23)cc1OCC (relative stereo)
224 to 225 | COc1ccc2c(c1)C(CC(=O)O)=C(C)C2=Cc1ccc(S(N)(=O)=O)cc1
183 to 186 | O=S(=O)(Cc1nc2ccc(Cl)cc2[nH]1)c1ccccn1
163 to 166 | CS(=O)(=O)Nc1cccc(Nc2nc(NCCO)c3nc[nH]c3n2)c1
225 to 228 | CNc1c(F)cc2c(=O)c(C(=O)O)cn(-c3cc(N)c(F)cc3F)c2c1C
95 to 97 | C=CCN(C(C)C)C(C)CC1=C(c2ccc(OC)cc2)CCCNC1=O (centres undefined)
149 to 153 | CCOC(=O)c1cn(C2CC2)c2c(Cl)c(F)ccc2c1=O
221 to 223 | Nc1cc(O)nn1-c1c(Cl)cc(Cl)cc1Cl
